Measurements taken from patent US20190031618A1, “BENZIMIDAZOLE DERIVATIVES USEFUL AS CB-1 INVERSE AGONISTS” (Janssen Pharmaceutica NV, priority 2015, published 2019).

Experiments:
[1] = target: Human CB1R (Cannabinoid receptor 1) (Homo sapiens, UniProt P21554); experiment: CB-1 in vitro cAMP (HTRF) assay; assay type: cell-based; conditions: HEK cells, cAMP HTRF, 250 nM forskolin; mean where tested more than once; read-out: CB1 HEK_cAMP EC50
Summary of the method: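 Intracellular cAMP from HTRF ratio (d2-cAMP vs Eu-cryptate anti-cAMP), converted to nM via per-plate standards, in stable human CB1R HEK-293 cells.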

[2] = target: Human CB2R (Cannabinoid receptor 2) (Homo sapiens, UniProt P34972); experiment: CB-2 in vitro cAMP (HTRF) assay; assay type: cell-based; conditions: HEK cells, cAMP HTRF, 250 nM forskolin; mean where tested more than once; read-out: CB2 HEK_cAMP EC50
Summary of the method: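 HEK-293 cells stably expressing receptor, plated overnight at 4E5 cells/mL, tested with 1/3 serial dilutions of compound in HBSS/HEPES/BSA buffer with 0.5 mM IBMX and forskolin (diluted to 1.5 μM in buffer). cAMP measured by competitive HTRF immunoassay (d2-cAMP, cryptate anti-cAMP), signal inversely proportional to cAMP.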

Sequence of Human CB1R (Cannabinoid receptor 1) (P21554 whole entry): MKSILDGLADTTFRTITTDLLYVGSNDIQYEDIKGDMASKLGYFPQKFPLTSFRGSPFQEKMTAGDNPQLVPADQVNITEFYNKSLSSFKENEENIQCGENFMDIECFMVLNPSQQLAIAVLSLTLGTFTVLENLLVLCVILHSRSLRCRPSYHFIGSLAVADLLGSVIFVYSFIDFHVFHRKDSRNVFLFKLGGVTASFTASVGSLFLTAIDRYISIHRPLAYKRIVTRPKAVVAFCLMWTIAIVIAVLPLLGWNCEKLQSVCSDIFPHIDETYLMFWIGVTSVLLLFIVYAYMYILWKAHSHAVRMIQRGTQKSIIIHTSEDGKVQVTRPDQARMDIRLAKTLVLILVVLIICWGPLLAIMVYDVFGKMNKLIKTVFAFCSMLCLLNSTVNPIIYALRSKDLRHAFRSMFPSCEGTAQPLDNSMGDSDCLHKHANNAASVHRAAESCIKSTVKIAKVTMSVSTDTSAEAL
Sequence of Human CB2R (Cannabinoid receptor 2) (P34972 whole entry): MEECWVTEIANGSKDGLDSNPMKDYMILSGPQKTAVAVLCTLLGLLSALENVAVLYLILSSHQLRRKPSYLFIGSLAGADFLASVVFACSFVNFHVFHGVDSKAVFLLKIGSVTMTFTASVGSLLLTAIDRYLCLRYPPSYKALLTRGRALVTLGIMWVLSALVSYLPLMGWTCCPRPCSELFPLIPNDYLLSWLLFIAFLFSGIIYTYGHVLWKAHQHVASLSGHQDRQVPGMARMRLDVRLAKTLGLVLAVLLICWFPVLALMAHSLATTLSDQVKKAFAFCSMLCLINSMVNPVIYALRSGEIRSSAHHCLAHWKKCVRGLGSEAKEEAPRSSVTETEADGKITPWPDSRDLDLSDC

EC50 [1]	EC50 [2]	SMILES
5050 nM	> 10000 nM	COc1cc(S(=O)(=O)N2CCC(n3c(C4CC4)nc4ccc(C(CO)(c5ccc(Cl)cc5)c5ccc(Cl)cc5)cc43)CC2)ccc1C(N)=O [Example 192]
212 nM	> 7200 nM	Clc1ccc(Cn2c(-c3ccc(Cl)cc3)nc3ccc(C(c4ccc(Cl)cc4)c4nccs4)cc32)cc1 (centres unmarked) [Example 464]
11 nM	4960 nM	O=S(=O)(c1cc(Cl)c(O)c(Cl)c1)N1CCC(n2c(C3CC3)nc3ccc(C(c4ccc(Cl)cc4)c4ccc(Cl)cc4)cc32)CC1 [Example 222]
311 nM	8000 nM	O=C(O)COc1cccc(N2CCC(n3c(C4CC4)nc4ccc(C(c5ccc(Cl)cc5)c5ccc(Cl)cc5)cc43)CC2)c1 [Example 154]
> 10000 nM	> 10000 nM	O=C(O)C(c1ccc(Cl)cc1)(c1ccc(Cl)cc1)c1ccc2nc(C3CC3)n(CC3CCN(S(=O)(=O)C(F)(F)F)CC3)c2c1 [Example 12]
39.5 nM	2160 nM	O=C(O)c1ccc(N[C@H]2CC[C@@H](n3c(C4CC4)nc4ccc(C(c5ccc(Cl)cc5)c5ccc(Cl)cc5)cc43)CC2)cc1 [Example 32]
6.2 nM	> 10000 nM	NC(=O)c1csc(S(=O)(=O)N2CCC(n3c(C4CC4)nc4ccc(C(c5ccc(Cl)cc5)c5ccc(Cl)cc5)cc43)CC2)c1 [Example 216]
4490 nM	3350 nM	OC(c1ccc(Cl)cc1)(c1ccc2ncn(CCc3cccc(Cl)c3)c2c1)c1nccs1 (centres unmarked) [Example 405]
315 nM	> 10000 nM	CCOC(=O)c1nc2ccc(C(c3ccc(Cl)cc3)c3nccs3)cc2n1C1CCN(C(=O)OCC)CC1 (centres unmarked) [Example 413]
64.3 nM	> 10000 nM	Clc1ccc(C(c2ccc3nc(C4CC4)n(-c4cccc(Cl)c4)c3c2)c2nccs2)cc1 (centres unmarked) [Example 432]
1080 nM	> 10000 nM	CCOC(=O)N1CCC(n2c(-c3ccc(Cl)cc3)nc3ccc(C(c4ccc(Cl)cc4)c4nccs4)cc32)CC1 (centres unmarked) [Example 418]
53.3 nM	> 10000 nM	COC(=O)c1cc(OCCn2c(C3CC3)nc3ccc(C(c4ccc(Cl)cc4)c4ccc(Cl)cc4)cc32)cc(C(F)(F)F)c1 [Example 18]
150 nM	3000 nM	O=C(O)c1cccc(N[C@H]2CC[C@H](n3c(C4CC4)nc4ccc(C(c5ccc(Cl)cc5)c5ccc(Cl)cc5)cc43)CC2)c1 [Example 31]
160 nM	> 10000 nM	Cc1ccc(S(=O)(=O)N2CCC(n3c(C4CC4)nc4ccc(C(c5ccc(Cl)cc5)c5ccc(Cl)cc5)cc43)CC2)cc1C(=O)O [Example 188]
31.4 nM	6300 nM	Oc1ccc(Cn2c(C3CC3)nc3ccc(C(c4ccc(Cl)cc4)c4ccc(Cl)cc4)cc32)cc1 [Example 183]
5.7 nM	> 10000 nM	O=S(=O)(c1cccc(C(F)(F)F)c1)N1CCC(n2c(C3CC3)nc3ccc(C(c4ccc(Cl)cc4)c4ccc(Cl)cc4)cc32)CC1 [Example 284]
14.9 nM	2100 nM	O=C(CO)N1CCC(n2c(C3CC3)nc3ccc(C(c4ccc(Cl)cc4)c4ccc(Cl)cc4)cc32)CC1 [Example 240]
66.5 nM	> 10000 nM	Nc1ccc(S(=O)(=O)N2CCC(n3c(C4CC4)nc4ccc(C(c5ccc(Cl)cc5)c5ccc(Cl)cc5)cc43)CC2)cc1 [Example 151]
441 nM	272 nM	Clc1ccc(C(c2ccc3nc(-c4ccoc4)n(-c4cccc(Cl)c4)c3c2)c2nccs2)cc1 (centres unmarked) [Example 376]

The remaining lines, values behind:

SMILES	EC50 [1]	EC50 [2]
CC(c1cccc(O)c1)N1CCC(n2c(C3CC3)nc3ccc(C(c4ccc(Cl)cc4)c4ccc(Cl)cc4)cc32)CC1 (centres unmarked) [Example 56]	19.3 nM	> 10000 nM
O=C(NCCO)c1cccc(CN2CCC(n3c(C4CC4)nc4ccc(C(c5ccc(Cl)cc5)c5ccc(Cl)cc5)cc43)CC2)c1 [Example 70]	8.3 nM	5820 nM
NC(=O)COc1ccc(S(=O)(=O)N2CCC(n3c(C4CC4)nc4ccc(C(c5ccc(Cl)cc5)c5ccc(Cl)cc5)cc43)CC2)cc1 [Example 249]	5 nM	1710 nM
OC(Cn1c(C2CC2)nc2ccc(C(c3ccc(Cl)cc3)c3ccc(Cl)cc3)cc21)c1ccccc1 (single isomer, unassigned) [Example 289]	29.2 nM	> 10000 nM
O=S(=O)(c1ccc(O)cc1)N1CCC(n2c(C3CC3)nc3ccc(C(c4ccc(Cl)cc4)c4ccc(Cl)cc4)cc32)CC1 [Example 257]	5.4 nM	> 10000 nM
O=C(O)c1cccc(-c2ccc(CCn3c(C4CC4)nc4ccc(C(c5ccc(Cl)cc5)c5ccc(Cl)cc5)cc43)cc2)c1 [Example 24]	1940 nM	7300 nM
COc1ccc(S(=O)(=O)N2CCC(n3c(C4CC4)nc4ccc(C(c5ccc(Cl)cc5)c5ccc(Cl)cc5)cc43)CC2)cc1 [Example 281]	12.5 nM	> 10000 nM
CC(C)(C)c1csc(C(c2ccc(Cl)cc2)c2ccc3ncn(Cc4ccc(Cl)cc4)c3c2)n1 (centres unmarked) [Example 449]	> 10000 nM	> 10000 nM
O=S(=O)(c1ccc(CO)o1)N1CCC(n2c(C3CC3)nc3ccc(C(c4ccc(Cl)cc4)c4ccc(Cl)cc4)cc32)CC1 [Example 55]	12.3 nM	2740 nM
O=C(O)c1cc(CN2CCC(n3c(C4CC4)nc4ccc(C(c5ccc(Cl)cc5)c5ccc(Cl)cc5)cc43)CC2)ccn1 [Example 83]	42.6 nM	11300 nM
CC(c1cc(C(=O)O)ccn1)N1CCC(n2c(C3CC3)nc3ccc(C(c4ccc(Cl)cc4)c4ccc(Cl)cc4)cc32)CC1 (centres unmarked) [Example 59]	3.8 nM	> 21000 nM
NC(=O)COc1cccc(N2CCC(n3c(C4CC4)nc4ccc(C(c5ccc(Cl)cc5)c5ccc(Cl)cc5)cc43)CC2)c1 [Example 153]	8.7 nM	3610 nM
COc1ccc(S(=O)(=O)N2CCC(n3c(C4CC4)nc4ccc(C(c5ccc(Cl)cc5)c5ccc(Cl)cc5)cc43)CC2)cc1C(N)=O [Example 187]	51.8 nM	> 10000 nM
CC(c1cccc(C(=O)O)c1)N1CCC(n2c(C3CC3)nc3ccc(C(c4ccc(Cl)cc4)c4ccc(Cl)cc4)cc32)CC1 (single isomer, unassigned) [Example 47]	2.4 nM	17100 nM
NC(=O)c1ccc(CN2CCC(n3c(C4CC4)nc4ccc(C(c5ccc(Cl)cc5)c5ccc(Cl)cc5)cc43)CC2)o1 [Example 131]	8 nM	6500 nM
CCOC(=O)COc1cccc(-n2c(C3CC3)nc3ccc(C(c4ccc(Cl)cc4)c4ccc(Cl)cc4)cc32)c1 [Example 173]	55.9 nM	9200 nM
O=C(O)c1csc(CN2CCC(n3c(C4CC4)nc4ccc(C(c5ccc(Cl)cc5)c5ccc(Cl)cc5)cc43)CC2)c1 [Example 130]	15.5 nM	8100 nM
NC(=O)c1ccc(C(=O)N2CCC(n3c(C4CC4)nc4ccc(C(c5ccc(Cl)cc5)c5ccc(Cl)cc5)cc43)CC2)cn1 [Example 223]	24.8 nM	3340 nM
Clc1ccc(C(c2ccc3nc(-c4ccc(Cl)cc4Cl)n(C4CCCCC4)c3c2)c2nccs2)cc1 (centres unmarked) [Example 444]	535 nM	> 10000 nM
NC(=O)[C@H]1CC[C@@H](n2c(C3CC3)nc3ccc(C(c4ccc(Cl)cc4)c4ccc(Cl)cc4)cc32)CC1 [Example 136]	32 nM	9100 nM
NC(=O)c1cc(S(=O)(=O)N2CCC(n3c(C4CC4)nc4ccc(C(c5ccc(Cl)cc5)c5ccc(Cl)cc5)cc43)CC2)ccc1F [Example 217]	9.2 nM	> 10000 nM
